A value given as a limit tells only on which side of the number the result lay.

The subject of the assay is LPS induced TNF release. In words: Lipopolysaccharide-Activated THP1 Cell TNF Production Assay. Conditions: Homo sapiens, THP-1; THP1 cells, bacterial LPS, TNF-α secretion at 37° C. for 3 h. It is filed as cell-based. As for the experimental part: Lipopolysaccharide-Activated THP1 Cell TNF Production Assay
THP1 cells are resuspended in fresh THP1 media (RPMI 1640, 10% heat-inactivated FBS, 1xPGS, 1XNEAA, plus 30 μM βME) at a concentration of 1E6/mL. One hundred microliters of cells per well are plated in a polystyrene 96-well tissue culture. One microgram per mL of bacterial LPS is prepared in THP1 media and is transferred to the wells. Test compounds are dissolved in 100% DMSO and are serially diluted 3 fold in a polypropylene 96-well microtiter plate (drug plate). HI control and LO control wells contain only DMSO. One microliter of test compound from the drug plate followed by 10 μL of LPS are transferred to the cell plate. The treated cells are induced to synthesize and secrete TNF-α at 37° C. for 3 h. Forty microliters of conditioned media are transferred to a 96-well polypropylene plate containing 110 μL of ECL buffer (50 mM Tris-HCl pH 8.0, 100 mM NaCl, 0.05% Tween 20, 0.05% NaN3 and 1% FBS) supplemented with 0.44 nM MAB610 monoclonal Ab (R&D Systems), 0.34 nM ruthenylated AF210NA polyclonal Ab (R&D Systems) and […] sheep anti-mouse M280 Dynabeads (Dynal). After a 2 h incubation at room temperature with shaking, the reaction is read on the ECL M8 Instrument (IGEN Inc.). A low voltage is applied to the ruthenylated TNF-α immune complexes, which in the presence of TPA (the active component in Origlo), results in a cyclical redox reaction generating light at […]. The amount of secreted TNF-α in the presence of compound compared with that in the presence of DMSO vehicle alone (HI control) is calculated using the formula: % control (POC)=(cpd−average LO)/(average HI−average LO)*100. Data (consisting of POC and inhibitor concentration in μM) is fitted to a 4-parameter equation (y=A+((B−A)/(1+((x/C)^D))), where A is the minimum y (POC) value, B is the maximum y (POC), C is the x (cpd concentration) at the point of inflection and D is the slope factor) using a Levenburg-Marquardt non-linear regression algorithm.

`CC(C)NCC1CCCN1c1cc(-c2ccncc2)c(-c2ccc(Cl)cc2)c(=O)n1C` (stereo not shown) [Example 31, 3-(4-Chlorophenyl)-1-methyl-6-(2-{[(methylethyl)amino]methyl}pyrrolidinyl)-4-(4-pyridyl)hydropyridin-2-one] displayed a concentration for half-maximal inhibition (IC50) of at most 20 µM.

The values are drawn from patent US7026326B2, “Substituted heterocyclic compounds and methods of use” (Amgen Inc., priority 2002, dated 2006).
